The nature of data set [1]: Long-term stability of AChE and IDA tablets stored at room temperature. In kind it is physicochemical. The method, then: To test the ability of pullulan to retain IDA activity, 10 μL of 40 mM IDA and 40 μL of 120 g/L pullulan in water were mixed and casted in a polypropylene mold with wells with a size of 3 mm in diameter×3 mm in depth. The solution was air-dried overnight at 21° C. and 48% RH; tablet formation was considered not fully completed if the tablet could not be removed from the bottom of the well. […] To test IDA activity, 199 μL of Tris-HCl (100 mM, pH 8) was used to dissolve the pill and 1 μL of fresh 250 U/mL AChE was added. The solution was then transferred to a 96-well plate and the absorbance of the developing blue color was measured at A605 on a TECAN Infinite M200 Pro microtiter plate reader.
To test the ability of pullulan to retain AChE activity, 1 μL of 250 U/mL AChE and 40 μL of 120 g/L pullulan were mixed and casted into tablets. The solution was air-dried overnight at 21° C. and 48% RH; tablet formation was considered not fully completed if the tablet could not be removed from the bottom of the well; […] To test AChE activity, 195 μL of Tris-HCl (100 mM, pH 8) was used to dissolve the tablet and 5 μL of fresh 80 mM IDA was added. The solution was then transferred to a 96-well plate and the absorbance was measured at A605 on TECAN Infinite M200 Pro microtiter plate reader.

Data set [2] is described as follows: Testing IDA capsules and pullulan films (IDA protection). In kind it is physicochemical. The method, then:
15 μL of IDA dissolved in methanol was added to a pullulan capsule (cast in an eppendorf tube lid), and sealed with a 5 mL (50 mg/mL, 3.5 cm petri dish) PVA film using a PVA glue solution. Another capsule was prepared with IDA in a powdered form. The capsules were left to determine if the PVA will serve as an oxygen barrier to protect the IDA from oxidation over a period of time
In order to determine if pullulan works to stabilize IDA when the IDA is mixed into the pullulan solution, a solution of 300 mg/mL pullulan was mixed, and 5 μL of IDA dissolved in methanol was added to each 30 μL of sample.
Five samples were cast (total volume of 35 μL) into the caps of 0.6 mL Eppendorf microcentrifuge tubes and left to dry. The activity of the IDA will be measured by: • i. checking for a pink/red color change, which indicates the IDA is hydrolysed or oxidized • ii. testing with AChE to ensure that a blue color change still results Pesticide Tests
Previously explored was the addition of IDA (solution and powder form) to two PVA capsules. 5 uL of IDA dissolved in methanol was added to one, and IDA in powder form was added to the other.
Also tested was one of the capsules with IDA solution cast into a pullulan film (in the lid of a 0.6 mL eppendorf tube). […]

The nature of data set [3]: ATCh stability (Ellman assay reagents). In kind it is physicochemical. Particulars: several days in the refrigerator and in a fume hood with no protection. The method, then:
When tested in solution, with the following amounts of reagents were used: • i. 15 uL ATCh (300 uM), 1 uL AChE (10 or 250 U/L) • ii. 50 uL of 500 uM DTNB • iii. 34 uL Tris
Acetylthiocholine (ATCh) is an unstable molecule, and will hopefully be stabilized on paper. However, after several tests were performed, it was noted that after being left in the refrigerator for several days, and left in a fume hood with no protection against hydrolyzation, the ATCh was still stable when tested. The most likely reason for the continued activity of the ATCh is due to the Tris buffer it was dissolved in being evaporated, and the ATCh in a solid (or powdered) form is stable. Accordingly, it should be reliable to store the ATCh as a powder form, preferably inside of a soluble (pullulan) capsule.
In general terms: In Ellman's method for cholinesterases, released thiocholine reacts with DTNB.

Data set [4] has as its system Acetylcholinesterase. Particulars: Michaelis rate law, literature (Sadar and Laidler 1974); cited from earlier work.
The target of data set [5] is AChE (Electrophorus electricus, UniProt O42275). The data set is described as follows: Pesticide tests in Eppendorf tubes (AChE/IDA color change). Format: biochemical. Particulars: No. 1: malathion 10-2 mol/L, 5 μL AChE, 250 mg/mL pullulan, 30 μL, incubation 15 min. The method, then:
Three trials were conducted with fresh malathion (from Bioninterfaces Institute), which was diluted with Tris buffer to a concentration of 10-2 mol/L. A control sample was also done with 5 μL of AChE and 250 mg/mL pullulan to ensure that a color change would occur. The color change was initially green (˜2 minutes), then became a blue color which increased in intensity over time.
Information about the contents and the results of each Eppendorf tube test with pesticides is presented below. A control test was performed with 5 μL of AChE and L of dH2O with 5 μL of IDA/methanol, and the color change to blue-green was very quick.

Data set [6] is described as follows: Stability of 'all-in-one' luminescent pills at room storage condition. Format: physicochemical. The protocol: All reagents for the luciferase assay except for adenosine triphospate (ATP) were casted in a single pullulan pill. For the pullulan pills aqueous solutions of 10 mM Luciferin, […], 27 mM Coenzyme A (CoA), 170 mM Dithiothreitol (DTT), 10 mM Ethylenediaminetetraacetic acid (EDTA), 107 mM MgCO3, and 267 mM MgSO4 were prepared. 200 μL of each solution was added to 8 mL of 12 w/v % Pullulan solution. Lastly, for each pill 47 μL of the final solution was pipetted onto a PET film and dried in a glove box under nitrogen. The casted pills were then stored at room temperature.
A buffer solution containing ATP was prepared to test the activity of the luciferase pills. For the buffer solution, 16 mL of water was added to 2 mL of 2.5 mM ATP and 2 mL of 200 mM Tricine and the pH was adjusted to pH 7.8.
Once the pills were completely dried, they were collected in dark bottles. The pills were stored at room temperature and the activity of the pills was tested over time. On the day the pills were prepared, the activity of the fresh pullulan and reagent solution was tested. 47 μL of the solution and 100 μL of the buffer were added to a 96 well-plate and the luminescence was measured using the TECAN M1000. On subsequent days, the activity of the pills was measured by placing a single pill into a well and 100 μL of ATP buffer. Each test was performed with three repeats.

Data set [7] is described as follows: AChE stability over time in pullulan (reaction rate with IDA, absorbance at 605 nm). In kind it is physicochemical. The protocol: In order to quantify the protection that pullulan provides to AChE over time, it was attempted to create a set of samples (40) which will be tested over time. Each sample (cast into a 600 μL eppendorf tube) contains: • i. 40 μL of 200 mg/mL pullulan solution • ii. μL of AChE (250 U/L)
Each sample tube was allowed to dry, then was sealed and placed into a plastic bag and stored at ambient conditions (˜20° C.). At selected time points, the activity of the solution was tested by measuring absorbance over time, and finding the associated reaction rate (corresponding to the activity of the enzyme). To measure the activity, three (3) samples were taken (to establish triplicate repeats), and 195 μL of Tris buffer (100 mM, pH=8.0) was added to each Eppendorf tube and allowed to dissolve the […]. The resulting solution was then added to a 96 well plate, and absorbance was measured continuously at 605 nm after the addition of 5 μL of 80 mM IDA.

Data set [8] in a line: Loss of AChE activity as a function of temperature (30 min heat treatment). Format: physicochemical. The following applies: 30-minute heat treatment at 50° C. or above. The protocol:
To test the ability of pullulan to retain AChE activity, 1 μL of 250 U/mL AChE and 40 μL of 120 g/L pullulan were mixed and casted into tablets. The solution was air-dried overnight at 21° C. and 48% RH; tablet formation was considered not fully completed if the tablet could not be removed from the bottom of the well; and the resulting tablets were kept at room temperature for different lengths of time before being tested. To test AChE activity, 195 μL of Tris-HCl (100 mM, pH 8) was used to dissolve the tablet and 5 μL of fresh 80 mM IDA was added. The solution was then transferred to a 96-well plate and the absorbance was measured at A605 on TECAN Infinite M200 Pro microtiter plate reader.
The loss of AChE activity, however, is attributed to thermal denaturation. To further examine the role of pullulan in stabilizing AChE, activity of AChE was monitored as a function of temperature. For this experiment, native (unencapsulated) AChE and the corresponding pullulan tablet were treated at a given temperature for 30 min, followed by activity assessment at room temperature. […] In stark contrast, AChE tablets retained ca. 90% of their initial activity even after a 30-minute incubation at 90° C.

The nature of data set [9]: Comparison of AChE activity with different concentrations of pullulan after 2 weeks. Particulars: AChE in 125 and 250 mg/mL pullulan, 2 weeks age. In kind it is physicochemical. The method, then: To determine the effect the concentration of pullulan has on the maintenance of the AChE enzyme two samples of 2 weeks age were tested (125 and 250 mg/mL). […] More trials will be conducted at 1 week intervals to determine if there is a noticeable color intensity difference over time.

Data set [10] deals with T1, Luciferase (Photinus pyralis, UniProt P08659).
T1 construct: purchased Sigma-Aldrich
The experiment in a line: ATP detection assay with luminescent pills. In kind it is biochemical, Firefly. The method, then: The sensitivity of the luciferase assay was also investigated. To determine the detection limit of the assay, different ATP buffers were prepared with concentration ranging from 0 pM to 1000 pM and tested it with luminescent pills.

This is an account of results in patent publication US11940444B2, “Method of stabilizing molecules without refrigeration using water soluble polymers and applications thereof in performing chemical reactions” (priority 2013, dated 2024).

T1 sequence (P08659 whole entry): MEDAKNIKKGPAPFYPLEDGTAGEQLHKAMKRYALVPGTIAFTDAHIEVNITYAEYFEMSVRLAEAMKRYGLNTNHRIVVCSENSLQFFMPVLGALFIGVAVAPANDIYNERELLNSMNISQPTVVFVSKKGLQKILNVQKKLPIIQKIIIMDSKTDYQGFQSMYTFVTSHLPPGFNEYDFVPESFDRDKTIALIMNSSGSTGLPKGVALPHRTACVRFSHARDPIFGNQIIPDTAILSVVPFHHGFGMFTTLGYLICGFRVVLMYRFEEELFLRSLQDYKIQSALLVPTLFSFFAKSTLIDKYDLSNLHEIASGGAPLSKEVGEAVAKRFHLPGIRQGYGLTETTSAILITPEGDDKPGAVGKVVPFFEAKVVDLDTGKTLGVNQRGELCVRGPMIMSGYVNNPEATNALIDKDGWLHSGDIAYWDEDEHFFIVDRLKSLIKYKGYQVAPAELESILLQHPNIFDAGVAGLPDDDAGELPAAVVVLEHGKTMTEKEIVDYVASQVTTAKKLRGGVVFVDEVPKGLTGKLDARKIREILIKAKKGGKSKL
AChE, sequence (O42275 24-633): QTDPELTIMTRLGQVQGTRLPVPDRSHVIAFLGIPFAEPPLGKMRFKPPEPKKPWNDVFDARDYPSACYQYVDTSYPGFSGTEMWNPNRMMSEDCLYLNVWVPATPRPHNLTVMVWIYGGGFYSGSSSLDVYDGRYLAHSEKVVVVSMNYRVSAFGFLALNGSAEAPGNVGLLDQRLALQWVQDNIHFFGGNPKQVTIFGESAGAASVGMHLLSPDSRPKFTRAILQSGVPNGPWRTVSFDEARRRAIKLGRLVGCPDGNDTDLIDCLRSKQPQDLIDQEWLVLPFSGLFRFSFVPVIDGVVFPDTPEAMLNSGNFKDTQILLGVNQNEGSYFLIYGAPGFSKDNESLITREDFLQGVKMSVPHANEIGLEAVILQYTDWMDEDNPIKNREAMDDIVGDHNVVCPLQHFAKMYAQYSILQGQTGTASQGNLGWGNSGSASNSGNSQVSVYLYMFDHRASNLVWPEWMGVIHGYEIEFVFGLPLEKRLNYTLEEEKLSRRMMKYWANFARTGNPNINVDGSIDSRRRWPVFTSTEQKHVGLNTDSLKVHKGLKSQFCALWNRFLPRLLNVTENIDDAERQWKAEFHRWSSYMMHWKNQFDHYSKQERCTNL

Consider indoxyl acetate [IDA], for which the complete inactivation result in [1] (in solution at room temperature) was “completely inactive within a week”. This compound also had a loss of activity in data set [1] (in solution at room temperature, within one day) of 70%. In data set [2] (IDA solution cast into a pullulan film), the “time protected from hydrolyzation/oxidation” value is listed as ~2 weeks. For the same compound, the “IDA stability in PVA capsules” value in data set [2] (IDA solution or powder in PVA capsules, tested with AChE) was “kept stable over a period of two weeks”.

Regarding `CC(=O)SCC[N+](C)(C)C` [ATCh, Acetylthiocholine], the “stability of ATCh” value in [3] is listed as “still stable”.

For the compound `CC(=O)Oc1cn(C)c2ccccc12` [N-methylindoxyl acetate], in data set [4], the Km (in general, the substrate concentration at which the rate is half of its maximum) was 2580 µM and the kc is 320 s⁻¹.

For the compound `CCOC(=O)CC(SP(=S)(OC)OC)C(=O)OCC` (centres unmarked) [malathion], in [5], the “Result (color change)” value is “IDA/methanol. No color change at 5 minutes”.

With Luciferase, the “loss of activity in buffer” value in [6] (same components stored in buffer solution) is reported as “loses its activity in buffer solution in few hours”. Besides, in [6] (stored at room temperature), the “activity of enzyme alone in pullulan pills” value is “active even after four months”.

As for Acetylcholinesterase [AChE], in data set [7] (AChE cast in 200 mg/mL pullulan, stored at ambient conditions (~20 °C), over 30 days), the “activity as compared to a fresh sample” value is “approximately 63%”. The “activity of AChE left out without pullulan” value in data set [7] (without any pullulan, left out for 24 hours) is given as “completely inactivated”. The “time to become completely inactive” value in data set [1] (stored in solution at room temperature) is ≤ 3 days. For the same compound, the “activity after heat treatment” value in [8] was “completely inactive”. Besides, in data set [9], the “activity of the enzyme over two weeks” value is given as “not much decreased”.

Take `Nc1ncnc2c1ncn2[C@@H]1O[C@H](COP(=O)(O)OP(=O)(O)OP(=O)(O)O)[C@@H](O)[C@H]1O` [ATP, Adenosine triphosphate]: the “limit of detection of ATP concentration” value in [10] (at 3a above background, tricine buffer) is recorded as 16 pM. In addition, the “limit of detection as amount of ATP” value in data set [10] (in 100 uL added to the pill) is 1.6 fmol.
